Measurements published in patent publication US5597715A, “7,42-Bis(O-demethyl)rapamycin” (SmithKline Beecham p.l.c., priority 1993, dated 1997).

Tested on: Spleen cells
Assay: Mitogenesis Assay for Immunosuppressive Activity (Concanavalin A, 3H-thymidine)
Type: cell-based, BDF1 female mice
Conditions: Mus musculus; Concanavalin A 5 μg/ml, 72 hours, 3H-thymidine last 18 hours
Description: Spleen cells for BDF1 female mice were established in RPMI with 10% fetal calf serum at 5×10^6 /mL. One hundred […] of this suspension (5×10^5 cells) were dispensed into 96-well round-bottomed microtiter plates (Linbro, Flow Laboratories). Concanavalin A (5 μg/ml) was added as the mitogenic stimulus, and the final volume in the microtiter wells was adjusted to 200 μL with RPMI. Cell cultures were incubated for 72 hours at 37° C. in a 5% CO2 atmosphere and pulsed with 0,5 μCi ^3 H-thymidine (specific activity […]) for the last 18 hours of the 72 hours culture. The cells were harvested on an automated multiple sample harvester and cell-associated radioactivity counted in a Beckman liquid scintillation counter. The results were expressed as the mean values derived from quadruplicate measurements. Cell viability was determined by trypan blue exclusion after 72 hours of incubation. Compounds to be tested were added to the microtiter plates at the appropriate dilutions prior to the addition of cells.

IC50: 10 to 130 nM
SMILES: COC1C(=O)C(C)CC(C)C=CC=CC=C(C)C(O)CC2CCC(C)C(O)(O2)C(=O)C(=O)N2CCCCC2C(=O)OC(C(C)CC2CCC(O)C(O)C2)CC(=O)C(C)C=C(C)C1O (stereo not shown) [7,42-Bis(O-demethyl)rapamycin]
